Test results: publication PMC6842527, “Molecular cloning and metabolomic characterization of the 5-enolpyruvylshikimate-3-phosphate synthase gene from Baphicacanthus cusia” (BMC Plant Biology, 2019)

Target: T1, BcEPSPS (5-enolpyruvylshikimate-3-phosphate synthase)
T1 construct: gene EPSPS; full-length coding region (518 aa) in pET-32a, His-tagged fusion BcEPSPS-His, expressed in E. coli BL21
Assay: malachite green phosphate-release enzyme assay with purified recombinant BcEPSPS; Ki at […] S3P (IC50 […] also reported)
Assay type: biochemical, Baphicacanthus cusia

## O=C(O)CNCP(=O)(O)O [glyphosate]
  Ki: 0.046 µM
